Results from patent US20220401407A1, “REGULATION OF THE SLEEP/WAKE CYCLE USING C[…]” (Demetrix, Inc., priority 2021, published 2022).
Entries after “also recorded” stand apart in the source; their conditions may differ.

Key:
Type in all cases: cell-based
[1] = target: T1, HCRTR2 (Homo sapiens, UniProt O43614); test: PathHunter β-Arrestin GPCR agonist assay, HCRTR2; design: concentration or dose not given beside the values; conditions: agonist mode; Orexin A as control
T1 sequence (O43614 1-444): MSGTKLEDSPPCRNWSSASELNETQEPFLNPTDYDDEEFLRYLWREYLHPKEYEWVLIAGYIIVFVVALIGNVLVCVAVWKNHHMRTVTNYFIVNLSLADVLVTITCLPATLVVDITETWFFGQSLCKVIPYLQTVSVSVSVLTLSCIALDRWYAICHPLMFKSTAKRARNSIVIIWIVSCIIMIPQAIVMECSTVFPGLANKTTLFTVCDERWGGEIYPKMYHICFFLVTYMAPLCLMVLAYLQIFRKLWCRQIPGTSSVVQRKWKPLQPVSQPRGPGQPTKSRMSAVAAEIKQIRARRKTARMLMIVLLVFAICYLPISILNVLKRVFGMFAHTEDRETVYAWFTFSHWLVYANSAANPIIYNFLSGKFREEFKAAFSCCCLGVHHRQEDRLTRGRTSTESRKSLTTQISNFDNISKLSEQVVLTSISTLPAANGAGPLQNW
Description: (§1) To evaluate the role specific cannabinoid compounds may play on the sleep/wake cycle, a GPCR reactivity assay was performed to determine the reactivity of 19 cannabinoid compounds to the orexin receivers HCRTR1 and HCRTR2. The evaluated cannabinoid compounds were: CBN, THCV, CBDVA, CBG, CBL, CBC, CBDV, CBDA, CBD, CBGA, (+)-CBD, CBG-C4, CBD-C1, CBD-C2, CBGV, CBGA-C4, CBGVA, CBCA, and CBLA. Orexin A was used as the control for HCRTR1 and HCRTR2.
(§2) To perform the GPCR reactivity assay, a commercial GPCR assay, PathHunter® β-Arrestin from Eurofins DiscoverX Products (Fremont, Calif.), was used. […] At activation of the GPCR receptor and recruitment of β-arrestin, complementation of the peptide fragments occurs and restores β-galactosidase activity. The amount of β-galactosidase activity is then measurable using chemiluminescent reagents.
(§3) A total of four assays were run. Agonist assays were run for each of HCRTR1 and HCRTR2 and antagonist assays were run for HCRTR1 and HCRTR2. In each of the two agonist assays, PathHunter® cell lines were removed from a freezer stock and seeded at a volume of 20 μL into white walled, 384-well microplates and incubated at 37° C. Each cell was incubated with a sample to induce a response and then diluted to generate a 5× sample in assay buffer. 5 μL of the 5× sample was then added to cells and incubated at 37° C. for 90 or 180 minutes. The final assay concentration was 1%. The assay signal was generated through addition of 12.5 μL or 15 μL (50% V/V) of a detection reagent cocktail followed by a one hour incubation time at room temperature. Microplates were read following signal generation with a PerkinElmer Envision™ (PerkinElmer Inc., Waltham, Mass.) for chemiluminescent signal detection. Reactivity was analyzed using the CBIS data analysis suite (ChemInnovation, CA) where RLU refers to the raw measured values. The percent activity was then calculated using the formula: % Activity=100%*(mean RLU of test sample−mean RLU of control)/(mean max control ligand−mean RLU of vehicle control).
(§4) For agonist activity, the percent activity is depicted while for antagonist activity, the percent inhibition is depicted.

[2] = target: T1, HCRTR2; test: PathHunter β-Arrestin GPCR antagonist assay, HCRTR2; conditions: for HCRTR2 (Antagonist) percent inhibition: antagonist mode, agonist challenge at EC80
Description: as §1, §2
(§5) In each of the two antagonist assays, PathHunter® cell lines were removed from a freezer stock and seeded at a volume of 20 μL into white walled, 384-well microplates and incubated at 37° C. Each cell was pre-incubated with an antagonist followed by an agonist challenge at the EC80 concentration. Cells were then diluted to generate a 5× sample in assay buffer. 5 μL of the 5× sample was then added to cells and incubated at 37° C. for 30 minutes. Finally, 5 μL of 6×EC80 agonist in assay buffer were added to the cells and incubated at 37° C. for 90 minutes or 180 minutes. The assay signal was generated through addition of 12.5 μL or 15 μL (50% V/V) of a detection reagent cocktail followed by a one hour incubation time at room temperature. Microplates were read following signal generation with a PerkinElmer Envision™ (PerkinElmer Inc., Waltham, Mass.) for chemiluminescent signal detection. Reactivity was analyzed using the CBIS data analysis suite (ChemInnovation, CA) where RLU refers to the raw measured values. The percent inhibition was calculated using the formula: % Inhibition=100%*(1−mean RLU of test sample−mean RLU of control)/(mean RLU of EC80 control−mean RLU of vehicle control).
as §4

[3] = target: T2, HCRTR1 (Homo sapiens, UniProt O43613); test: PathHunter β-Arrestin GPCR antagonist assay, HCRTR1; conditions: for HCRTR1 (Antagonist) percent inhibition: antagonist mode, agonist challenge at EC80
T2 sequence (O43613 1-425): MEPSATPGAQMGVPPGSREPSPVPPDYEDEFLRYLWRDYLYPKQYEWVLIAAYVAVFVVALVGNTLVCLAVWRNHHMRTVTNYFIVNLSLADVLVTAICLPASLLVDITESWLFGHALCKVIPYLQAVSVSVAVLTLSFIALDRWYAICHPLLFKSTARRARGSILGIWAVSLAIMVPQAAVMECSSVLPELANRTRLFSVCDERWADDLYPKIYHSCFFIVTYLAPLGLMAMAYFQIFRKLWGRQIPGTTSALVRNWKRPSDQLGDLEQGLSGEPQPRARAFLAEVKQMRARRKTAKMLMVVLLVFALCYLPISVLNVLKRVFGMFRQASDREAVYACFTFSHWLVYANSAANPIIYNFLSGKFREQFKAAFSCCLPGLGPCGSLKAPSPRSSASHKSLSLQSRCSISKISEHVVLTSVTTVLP
Description: as §1, §2, §5, §4

[4] = target: dopamine receptor DRD5 (Homo sapiens, UniProt P21918); test: PathHunter β-Arrestin GPCR agonist assay, DRD5; design: DRD5 (Agonist) percent activity: concentration or dose not given beside the values; conditions: agonist mode; dopamine as control
Sequence of dopamine receptor DRD5 (P21918 whole entry): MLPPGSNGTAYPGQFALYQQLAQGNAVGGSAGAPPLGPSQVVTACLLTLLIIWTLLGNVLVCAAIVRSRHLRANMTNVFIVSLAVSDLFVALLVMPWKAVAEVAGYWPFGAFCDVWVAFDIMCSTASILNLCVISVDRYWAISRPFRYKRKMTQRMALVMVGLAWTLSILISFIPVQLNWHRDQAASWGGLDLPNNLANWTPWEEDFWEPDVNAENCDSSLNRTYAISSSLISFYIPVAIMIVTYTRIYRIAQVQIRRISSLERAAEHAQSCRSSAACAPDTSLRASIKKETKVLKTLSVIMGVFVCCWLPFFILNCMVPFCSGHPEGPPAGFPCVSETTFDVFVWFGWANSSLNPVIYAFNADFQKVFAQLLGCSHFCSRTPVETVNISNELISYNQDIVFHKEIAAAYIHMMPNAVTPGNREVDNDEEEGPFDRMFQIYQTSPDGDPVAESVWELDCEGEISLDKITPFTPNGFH
Excerpt: as §2, §3
Table 2 depicts the results of evaluating the cannabinoid compounds to act as an agonist for the dopamine receptor DRD5. The same experimental procedure as used for HCRTR1 and HCRTR2 agonist testing (Table 1) was followed with the substitution of dopamine as the control for the DRD5 receptor.

[5] = target: T2, HCRTR1; test: PathHunter β-Arrestin GPCR agonist assay, HCRTR1; design: concentration or dose not given beside the values; conditions: agonist mode; Orexin A as control
Description: as §1, §2, §3, §4

Row | Structure (SMILES) | HCRTR2 (Agonist) percent activity [1] [%] | antagonist effect on HCRTR2 (in words) [2] | HCRTR2 (Antagonist) percent inhibition [2] [%] | antagonist effect on HCRTR1 (in words) [3] | HCRTR1 (Antagonist) percent inhibition [3] [%] | DRD5 (Agonist) percent activity [4] [%] | HCRTR1 (Agonist) percent activity [5] [%]
1 | CCCCCc1cc(O)c2c(c1)OC(C)(CCC=C(C)C)C=C2 (centres unmarked) [CBC, cannabichromene] | 3 | antagonist effect; also recorded: acted as an antagonist | 96 | antagonist effect; also recorded: acted as an antagonist | 98 | 22 | 0
2 | CCCCCc1cc2c(c(O)c1C(=O)O)C=CC(C)(CCC=C(C)C)O2 (centres unmarked) [CBCA, cannabichromenic acid] | 1 | do not demonstrate meaningful activity | 17 | do not demonstrate meaningful activity | 12 | 1 | 3
3 | C=C(C)[C@@H]1CCC(C)=C[C@H]1c1c(O)cc(CCCCC)cc1O [CBD, cannabidol] | 5 | antagonist effect; also recorded: acted as an antagonist | 85 | antagonist effect; also recorded: acted as an antagonist | 96 | 27 | 1
4 | C=C(C)[C@@H]1CCC(C)=C[C@H]1c1c(O)cc(C)cc1O [CBD-C1, cannabidiorcol] | 1 | do not demonstrate meaningful activity | 9 | do not demonstrate meaningful activity | 12 | 0 | 3
5 | C=C(C)[C@@H]1CCC(C)=C[C@H]1c1c(O)cc(CC)cc1O [CBD-C2, cannabidol-C2] | 1 | do not demonstrate meaningful activity | 13 | do not demonstrate meaningful activity | 20 | 1 | 2
6 | C=C(C)[C@@H]1CCC(C)=C[C@H]1c1c(O)cc(CCCCC)c(C(=O)O)c1O [CBDA, cannabidiolic acid] | 0 | do not demonstrate meaningful activity | 10 | do not demonstrate meaningful activity | 2 | 5 | 1
7 | C=C(C)[C@@H]1CCC(C)=C[C@H]1c1c(O)cc(CCC)cc1O [CBDV, cannabidivarin] | 0 | demonstrate activity against only HCRTR1; also recorded: did not act as antagonists | 18 | demonstrate activity against only HCRTR1; also recorded: acted as antagonists | 61 | 7 | 0
8 | C=C(C)[C@@H]1CCC(C)=C[C@H]1c1c(O)cc(CCC)c(C(=O)O)c1O [CBDVA, cannabidivarinic acid] | 0 | do not demonstrate meaningful activity | 10 | do not demonstrate meaningful activity | 7 | 4 | 0
9 | CCCCCc1cc(O)c(C/C=C(\C)CCC=C(C)C)c(O)c1 [CBG, cannabigerol] | 4 | antagonist effect; also recorded: acted as an antagonist | 68 | antagonist effect; also recorded: acted as an antagonist | 98 | 9 | 3
10 | CCCCc1cc(O)c(CC=C(C)CCC=C(C)C)c(O)c1 [CBG-C4, cannabigerol butyl] | 6 | antagonist effect; also recorded: acted as an antagonist | 45 | antagonist effect; also recorded: acted as an antagonist | 84 | 6 | 4
11 | CCCCCc1cc(O)c(C/C=C(\C)CCC=C(C)C)c(O)c1C(=O)O [CBGA, cannabigerolic acid] | 1 | do not demonstrate meaningful activity | 14 | do not demonstrate meaningful activity | 8 | 0 | 1
